Measured values published in PubChem BioAssay (NCI).
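These data come from cells grown in 96-well plates and exposed to compound for 48 hours at five concentrations. Abbreviation: GI50, concentration required for 50% inhibition of growth. At the TGI there is no net growth.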

Tests used:
Experiment in all cases: DTP human tumour cell line panel, 48 h
786-0 renal = test system: 786-0 renal
A498 renal = test system: A498 renal
A549 NSCLC = test system: A549 NSCLC
ACHN renal = test system: ACHN renal
BT-549 breast = test system: BT-549 breast
CAKI-1 renal = test system: CAKI-1 renal
CCRF-CEM leukemia = test system: CCRF-CEM leukemia
COLO 205 colon = test system: COLO 205 colon
DU-145 prostate = test system: DU-145 prostate
EKVX NSCLC = test system: EKVX NSCLC
HCC-2998 colon = test system: HCC-2998 colon
HCT-116 colon = test system: HCT-116 colon
HCT-15 colon = test system: HCT-15 colon
HL-60(TB) leukemia = test system: HL-60(TB) leukemia
HOP-62 NSCLC = test system: HOP-62 NSCLC
HOP-92 NSCLC = test system: HOP-92 NSCLC
HS 578T breast = test system: HS 578T breast
HT29 colon = test system: HT29 colon
IGROV1 ovarian = test system: IGROV1 ovarian
K-562 leukemia = test system: K-562 leukemia
KM12 colon = test system: KM12 colon
LOX IMVI melanoma = test system: LOX IMVI melanoma
M14 melanoma = test system: M14 melanoma
MALME-3M melanoma = test system: MALME-3M melanoma
MCF7 breast = test system: MCF7 breast
MDA-MB-231 breast = test system: MDA-MB-231 breast
MDA-MB-435 = test system: MDA-MB-435
MOLT-4 leukemia = test system: MOLT-4 leukemia
NCI-H226 lung = test system: NCI-H226 lung
NCI-H23 lung = test system: NCI-H23 lung
NCI-H460 lung = test system: NCI-H460 lung
NCI-H522 lung = test system: NCI-H522 lung
NCI/ADR-RES ovarian = test system: NCI/ADR-RES ovarian
OVCAR-3 ovarian = test system: OVCAR-3 ovarian
OVCAR-4 ovarian = test system: OVCAR-4 ovarian
OVCAR-5 ovarian = test system: OVCAR-5 ovarian
OVCAR-8 ovarian = test system: OVCAR-8 ovarian
PC-3 prostate = test system: PC-3 prostate
RPMI-8226 leukemia = test system: RPMI-8226 leukemia
RXF 393 renal = test system: RXF 393 renal
SF-268 CNS = test system: SF-268 CNS
SF-295 CNS = test system: SF-295 CNS
SF-539 CNS = test system: SF-539 CNS
SK-MEL-2 melanoma = test system: SK-MEL-2 melanoma
SK-MEL-28 melanoma = test system: SK-MEL-28 melanoma
SK-OV-3 ovarian = test system: SK-OV-3 ovarian
SN12C renal = test system: SN12C renal
SNB-19 CNS = test system: SNB-19 CNS
SNB-75 CNS = test system: SNB-75 CNS
SR leukemia = test system: SR leukemia
SW-620 colon = test system: SW-620 colon
T-47D breast = test system: T-47D breast
TK-10 renal = test system: TK-10 renal
U251 CNS = test system: U251 CNS
UACC-62 melanoma = test system: UACC-62 melanoma
UO-31 renal = test system: UO-31 renal

## COC(=O)C1=C(C)NC(C)=C(C(=O)OC)C1c1ccccc1[N+](=O)[O-]
786-0 renal
  GI50: > 100 µM
  TGI: > 100 µM
A498 renal
  GI50: 11.3 µM
  TGI: 56.3 µM
A549 NSCLC
  GI50: > 100 µM
  TGI: > 100 µM
ACHN renal
  GI50: 76.9 µM
  TGI: > 100 µM
BT-549 breast
  GI50: > 100 µM
  TGI: > 100 µM
CAKI-1 renal
  GI50: 38.8 µM
  TGI: > 100 µM
CCRF-CEM leukemia
  GI50: > 100 µM
  TGI: > 100 µM
COLO 205 colon
  GI50: 89 µM
  TGI: > 100 µM
DU-145 prostate
  GI50: > 100 µM
  TGI: > 100 µM
EKVX NSCLC
  GI50: 64.3 µM
  TGI: > 100 µM
HCC-2998 colon
  GI50: > 100 µM
  TGI: > 100 µM
HCT-116 colon
  GI50: > 100 µM
  TGI: > 100 µM
HCT-15 colon
  GI50: 65.8 µM
  TGI: > 100 µM
HL-60(TB) leukemia
  GI50: 31.7 µM
  TGI: > 100 µM
HOP-62 NSCLC
  GI50: > 100 µM
  TGI: > 100 µM
HOP-92 NSCLC
  GI50: 23.3 µM
  TGI: > 100 µM
HS 578T breast
  GI50: 32.4 µM
  TGI: > 100 µM
HT29 colon
  GI50: > 100 µM
  TGI: > 100 µM
IGROV1 ovarian
  GI50: 57.2 µM
  TGI: > 100 µM
K-562 leukemia
  GI50: 78.8 µM
  TGI: > 100 µM
KM12 colon
  GI50: > 100 µM
  TGI: > 100 µM
LOX IMVI melanoma
  GI50: > 100 µM
  TGI: > 100 µM
M14 melanoma
  GI50: > 100 µM
  TGI: > 100 µM
MALME-3M melanoma
  GI50: > 100 µM
  TGI: > 100 µM
MCF7 breast
  GI50: > 100 µM
  TGI: > 100 µM
MDA-MB-231 breast
  GI50: 70.7 µM
  TGI: > 100 µM
MDA-MB-435
  GI50: > 100 µM
  TGI: > 100 µM
MOLT-4 leukemia
  GI50: 78.2 µM
  TGI: > 100 µM
NCI-H226 lung
  GI50: 87.6 µM
  TGI: > 100 µM
NCI-H23 lung
  GI50: > 100 µM
  TGI: > 100 µM
NCI-H460 lung
  GI50: 97.6 µM
  TGI: > 100 µM
NCI-H522 lung
  GI50: > 100 µM
  TGI: > 100 µM
NCI/ADR-RES ovarian
  GI50: 49.3 µM
  TGI: > 100 µM
OVCAR-3 ovarian
  GI50: 93.2 µM
  TGI: > 100 µM
OVCAR-4 ovarian
  GI50: 61.9 µM
  TGI: > 100 µM
OVCAR-5 ovarian
  GI50: > 100 µM
  TGI: > 100 µM
OVCAR-8 ovarian
  GI50: 64.8 µM
  TGI: > 100 µM
PC-3 prostate
  GI50: 50.3 µM
  TGI: > 100 µM
RPMI-8226 leukemia
  GI50: 47.6 µM
  TGI: > 100 µM
RXF 393 renal
  GI50: 36 µM
  TGI: > 100 µM
SF-268 CNS
  GI50: > 100 µM
  TGI: > 100 µM
SF-295 CNS
  GI50: 57.8 µM
  TGI: > 100 µM
SF-539 CNS
  GI50: > 100 µM
  TGI: > 100 µM
SK-MEL-2 melanoma
  GI50: > 100 µM
  TGI: > 100 µM
SK-MEL-28 melanoma
  GI50: > 100 µM
  TGI: > 100 µM
SK-OV-3 ovarian
  GI50: > 100 µM
  TGI: > 100 µM
SN12C renal
  GI50: 82.2 µM
  TGI: > 100 µM
SNB-19 CNS
  GI50: > 100 µM
  TGI: > 100 µM
SNB-75 CNS
  GI50: 27 µM
  TGI: > 100 µM
SR leukemia
  GI50: 34.7 µM
  TGI: > 100 µM
SW-620 colon
  GI50: > 100 µM
  TGI: > 100 µM
T-47D breast
  GI50: 50.9 µM
  TGI: > 100 µM
TK-10 renal
  GI50: > 100 µM
  TGI: > 100 µM
U251 CNS
  GI50: > 100 µM
  TGI: > 100 µM
UACC-62 melanoma
  GI50: 29.6 µM
  TGI: > 100 µM
UO-31 renal
  GI50: 50 µM
  TGI: > 100 µM
